Test results as given in patent US20210299657A1, “Method for Development of Microfluidic Assay Device Prototype” (University of Manitoba, priority 2018, published 2021).

Tests used:
[1] = tested on: endogenous HMGA2 protein levels in MDA-MB-231 cells; experiment: Western blot analysis of HMGA2 protein in MDA-MB-231 cells; format: cell-based, human; conditions: 72 h of treatment; for endogenous HMGA2 protein levels: 10 and 20 μM
Description: (§1) Interleukin-8 (IL8) (R&D systems, Minneapolis, USA), N-Formylmethionyl-leucyl-phenylalanine (fMLP) (Sigma, Oakville, Canada) and epidermal growth factor (EGF) (Bachem, Torrance, USA) were used as the chemoattractant for neutrophils and breast cancer cells, respectively, in the radial microfluidic chip. Neutrophils were isolated from blood of healthy donors using a negative magnetic isolation kit (STEMCELL, Vancouver, Canada). The human breast cancer cell lines MDA-MB-231 and MCF-7 were obtained from ATCC and cultured in DMEM/F12 plus 5% FBS. MDA-MB-231 cells containing a pcDNA3 human full-size HMGA2 expression construct or an empty vector control, as well as HMGA2-knockout MDA-MB-231 cells transduced with a specific lentiviral CRISPR/Cas9 construct (pLV-U6g-EPCG-HMGA2, HS0000278246; Sigma, Oakville, Canada), were cultured with DMEM/F12 medium plus 5% FBS. We employed a rabbit polyclonal anti-HMGA2 antibody (Cell Signalling Technologies, Whitby, Canada) in Western blot analysis to identify MDA-MB-231 clones with homozygous deletion of HMGA2. The small molecule Lin28 inhibitor 1632 (R&D Systems, Minneapolis, USA) was used at 10 and 20 μM to down-regulate endogenous HMGA2 in MDA-MB-231 cells.
To test this hypothesis and further characterize the role of HMGA2 in chemotaxis of MDA-MB-231, we opted for a pharmacological (LIN28 inhibitor 1632) and CRISPR/Cas9 mediated HMGA2 knockout strategy (FIG. 4B-C). […] Next, we treated MDA-MB-231 with a specific CRISPR/Cas9 lentiviral construct and the homozygous loss of HMGA2 expression in MDA-MB-231 HMGA2 knockout (KO) cells was confirmed by Western blot analysis (FIG. 6C). When exposed to a 100 ng/mL EGF gradient in the radial microfluidic chemotaxis assays, we observed a marked reduction in migration distance in MDA-MB-231 KO clones when compared to parental MDA-MB-231 (FIG. 7C). […] This novel higher throughput device may be a valuable new tool to excel the search for new therapeutic drugs and small molecules that can mitigate chemotaxis in inflammatory and tumor cells. […]

[2] = tested on: MDA-MB-231 breast cancer cells; experiment: Radial microfluidic chemotaxis assay, MDA-MB-231 cells (migration distance); format: cell-based, human; conditions: for chemotaxis response (migration distance) to the EGF gradient after inhibitor treatment: MDA-MB-231 cells with reduced HMGA2 levels after LIN28 inhibitor, 6 h migration
Description: (§2) The device pattern was designed using AUTOCAD and printed on a transparent film at high resolution. The SU-8 device master was fabricated on a 3-inch silicon wafer by a two-layer photolithography (10). The first layer defines the cell docking structure that is used to align the cells to one side of the gradient channel prior to migration (FIG. 2). Its thickness should be cell specific, with it being slightly lower than the cell size but not be too low to prevent the cells from crossing, as described herein. We chose ˜2.5 μm for neutrophils and ˜7 μm for breast cancer cells. The Polydimethylsiloxane (PDMS) (Sylgard 184; Dow Corning, Midland, USA) device was fabricated using soft-lithography. Inlets (6 mm diameter), outlets (4 mm diameter), and the cell loading port (2 mm diameter) were punched. The PDMS replica was bonded to a glass slide to seal the channels after plasma treatment. The device channels were coated using rat tail collagen type I (3.8 μg/mL; Advanced BioMatrix, San Diego, USA) for one hour and then blocked by 0.4% BSA in RPMI medium for another hour before the migration experiment.
(§3) Two microliters of cell suspension were added to the cell loading port of each unit. When the cells had collected in the docking area, chemoattractant solution and migration medium were added to the corresponding inlets (FIG. 2). We used 100 nM IL-8 and 100 nM fMLP dissolved in RPMI-1640 with 0.4% BSA neutrophils. For the migration studies with the human breast cancer cells, EGF (10 ng/ml, 50 ng/ml, 100 ng/ml, 200 ng/ml) dissolved in DMEM/ F-12 plus 1% FBS served as chemoattractant.
(§4) To characterize proper gradient generation, FITC-dextran (10 kD; Sigma, Oakville, Canada) was added to the solution containing the chemoattractant and fluorescent images were captured using an inverted fluorescent microscope (Ti-U; Nikon, Mississauga, Canada). Upon adding the chemoattractant solution, the inlets were covered and connected with silicone oil (A12728-22, density=0.963 g/ml; Alfa Aesar, Tewksbury, USA) to balance the pressure difference between the two inlets (FIG. 3A). The microscope stage was enclosed by an environmental control chamber to maintain the temperature at 37° C. during the cell migration experiments. Time-lapse images (10 sec intervals for neutrophils and 3 min intervals for the breast cancer cells) recorded cell migration. The faster migration of neutrophils was recorded for 20 minutes, whereas migration of the breast cancer cells was monitored for 6 hours.
Cell migration and chemotaxis were quantified by calculating the migration distance the cells moved away from the docking site. For MDA-MB-231 experiments, trajectories of representative cells were tracked by manual tracking method using ImageJ. The migration angle ϕ is defined as the angle of the cell displacement vector in relation to the direction of the gradient and was calculated in 12 min intervals. The cosine of ϕ was used to indicate the directionality of cell migration relative to the gradient: 1 indicates cell migration perfectly along the gradient direction; −1 indicates cell migration along the opposite direction of the gradient; a value between 1 and −1 indicates the level of deviation of cell migration from the gradient direction. The cell shape was outlined using ImageJ. Each condition was repeated in at least three independent experiments. For statistical analysis, the two-sample Student's t-test was used to compare different conditions using OriginPro. P<0.05 was considered statistically significant and indicated by an asterisk.

[3] = tested on: human blood neutrophils; experiment: Radial microfluidic chemotaxis assay, neutrophils (migration distance); format: cell-based; conditions: for neutrophil chemotaxis: 100 nM gradient, 20-minute migration experiment
Description: as §2
Two microliters of cell suspension were added to the cell loading port of each unit. […]
To characterize proper gradient generation, FITC-dextran (10 kD; Sigma, Oakville, Canada) was added to the solution containing the chemoattractant and fluorescent images were captured using an inverted fluorescent microscope (Ti-U; Nikon, Mississauga, Canada). […] Time-lapse images (10 sec intervals for neutrophils and 3 min intervals for the breast cancer cells) recorded cell migration. The faster migration of neutrophils was recorded for 20 minutes, whereas migration of the breast cancer cells was monitored for 6 hours.
(§5) Cell migration and chemotaxis were quantified by calculating the migration distance the cells moved away from the docking site. […] The migration angle ϕ is defined as the angle of the cell displacement vector in relation to the direction of the gradient and was calculated in 12 min intervals. […]

[4] = tested on: HMGA2 over-expressing and mock MDA-MB-231 stable transfectants; experiment: Radial microfluidic chemotaxis assay, HMGA2 over-expressing and mock MDA-MB-231 stable transfectants; format: cell-based, human
Description: as §1, §3
as §4, with “The microscope stage was enclosed by an environmental control chamber to maintain the temperature at 37° C. during the cell migration experiments.” left out
as §5

## CC(=O)N(C)c1cccc(-c2ccc3nnc(C)n3n2)c1 [LIN28 inhibitor 1632]
[1]; 20 μM
  presence of HMGA2 protein: almost completely abolished the presence of HMGA2
[1]
  endogenous HMGA2 protein levels: down-regulated endogenous HMGA2 protein levels
[1]; listed as LIN28 inhibitor
  endogenous HMGA2 protein levels: verifiable reduction of endogenous HMGA2 levels
[2]
  chemotaxis response (migration distance) to the EGF gradient after inhibitor treatment: markedly reduced migratory behavior
[2]; listed as 1632
  chemotaxis response (migration distance) to the EGF gradient after inhibitor treatment: markedly reduced chemotaxis
[2]; listed as LIN28 inhibitor
  chemotaxis response (migration distance) to the EGF gradient after inhibitor treatment: significant reduction in chemotaxis response to the EGF gradient

## CSCC[C@H](NC=O)C(=O)N[C@@H](CC(C)C)C(=O)N[C@@H](Cc1ccccc1)C(=O)O [fMLP, N-Formylmethionyl-leucyl-phenylalanine]
[3]; 100 nM fMLP gradient vs 100 nM IL-8 gradient, 20 minutes
  chemotaxis response with the fMLP gradient relative to the IL-8 gradient: more than 3 fold
[3]
  neutrophil chemotaxis: stimulated neutrophil chemotaxis

## EGF: epidermal growth factor (Bachem), chemoattractant for breast cancer cells (NSDSECPLSHDGYCLHDGVCMYIEALDKYACNCVVGYIGERCQYRDLKWWELR; Epidermal growth factor; UniProt P01133 971-1023, looked up)
[2]; 200, 100, and 50 ng/ml EGF gradient
  migration of MDA-MB-231 cells in EGF gradient: optimal and comparable migration
[2]; EGF 10 ng/ml gradient, compared with higher EGF concentrations
  directional migration of MDA-MB-231 cells in EGF gradient: directional migration decreased significantly
[2]; EGF gradient 100 ng/mL, 6 h
  migration of MDA-MB-231 cells in EGF gradient: actively migrated out of the docking structure towards the EGF gradient
[2]; gradient with input EGF concentration 10 ng/mL
  directional migration of MDA-MB-231 cells, low input EGF gradient: significantly increase directional migration
[2]; uniform field of EGF 100 ng/mL, 6 h
  migration of MDA-MB-231 cells in uniform EGF field: remained stationary in the docking structure and failed to show a chemotaxis response
[4]; EGF gradient 10 ng/mL vs uniform EGF field 50 ng/mL or normal medium
  migration of transfectants at lowest EGF gradient vs uniform field or medium: significantly stronger migration
[4]; EGF gradient 10 ng/mL, compared with the other EGF gradients
  migration distance of transfectants from the docking site, lowest EGF gradient: migrate the shortest distance
[4]; EGF gradients 200, 100, 50 and 10 ng/mL, 6 h
  migration of transfectants in EGF gradients: enhanced and directional migration with all EGF gradients tested
[4]; uniform EGF field 50 ng/mL, 6 h
  migration of transfectants in uniform EGF field: such migratory behaviour was absent

## IL-8: Interleukin-8 (R&D systems), chemoattractant for neutrophils
[3]
  neutrophil chemotaxis: stimulated neutrophil chemotaxis
